Common to all, as to test: Growth inhibition GI50 in vitro (CCK8/MTT, 72 h)
One test deals with A549 (EGFR WT). Format: cell-based, human. Particulars: Homo sapiens, A549.
Test [1] concerns SNU1040 (HER2 V777M positive). Format: cell-based. Particulars: Homo sapiens; Table 16; 1000 nM to 0.03 nM serial dilution; read-out: GI50 SNU-1040 (HER2 V777M). How it is done: (§1) Human lung adenocarcinoma cell line Calu-3 (ATCC) was cultured with 1×MEM complete medium (10% FBS, 1% double-antibiotics, 1% NEAA (Gibco), 2 mM glutamine and 1 mM of sodium pyruvate). Human breast cancer cell line SK-BR-3 was cultured with McCOY'S5A complete medium (10% FBS). Human colon cancer cell line SNU1040 (HER2 V777M positive) (ATCC) and human bronchoalveolar adenocarcinoma cell line NCI-H1781 (expressing HER2 exon 20 G776VC mutation) (ATCC) were cultured with 1×RPMI1640 complete medium (10% FBS), respectively.
(§2) Adherent cells were digested with 0.25% pancreatin-EDTA (Gibco). The suspension cells were collected by centrifugation. The supernatant was discard and the cell pellet was resuspended and counted. Different cell concentrations (5˜10×10^4 cells/mL) were prepared according to the growth cycle of each cell line and then seeded on a 96-well plate (Corning), 100 μL/well. The cells were incubated over night at 37° C., 5% CO2. The compounds were added to the cells on the second day with 2 wells in parallel. The final concentration of organic solvent shall not exceed 1%. The cells were continually incubated for 72 h, and then subjected to MTT assay.
(§3) The present compounds and the reference compounds were dissolved with DMSO (Sigma), respectively. […] The storage concentration of compounds was 10 mM and kept at −20° C. They were diluted by 2 times or 10 times with serial dilution before using.
(§4) Dojindo CCK8 reagent kit was used as MTT assay. […] FC meter was used as microplate reader.
(§5) Adherent cell culture medium was discard and immediately replaced with fresh prepared medium which contains 10% CCK8 reagent (100 μL/well). For the suspension cells, CCK8 was directly added to 10% of the final concentration. The cells were continually incubated for 1˜4 h. When the color of control wells turned to dark yellow, the absorption value was measured at OD450 nm. The cell growth rate was calculated according to the following formula: cell growth rate (%)=100*(T−T0)/(C−T0), T=optical density of drug treatment cell well—optical density of blank control well; T0=optical density of cell well before drug treatment—optical density of blank control well; C=optical density of cell well of solvent control group—optical density of blank control well. The concentration value of 50% inhibition of cell growth (GI50) was calculated. The experiment was independently repeated 1˜3 times, and subject to biological statistical analysis.
(§6) Furthermore, the present compounds (99, 136, 205, 211, 212, 213, 216, 229, 230, 231, 232, 233 and 236) were selected to carry out growth inhibition test for HER2/ERBB2 gene amplified or high expressed or mutant tumor cells. Afatinib and AZD9291 were used for references as second- and third-generation inhibitors of EGFR.
(§7) Each compound started at 1000 nM as an initial concentration and was diluted by 2 times with serial dilution to 0.03 nM. The GI50 value of each compound was calculated according to Test Example 1.3.

Test [2] has as its system NCI-H1781 (HER2 exon 20 G776VC mutation). Format: cell-based. As to conditions: Homo sapiens, NCI-H1781; Table 16; 1000 nM to 0.03 nM serial dilution; read-out: GI50 H1781 (HER2 G776VC). How it is done:
as §1, §2, §3, §4, §5, §6, §7

Another test deals with Calu-3 (Her2 amp). Format: cell-based. Particulars: Homo sapiens, Calu-3; Table 16; 1000 nM to 0.03 nM serial dilution; read-out: GI50 Calu3 (HER2 amp). How it is done: as §1
(§8) The suspension cells were collected by centrifugation. The supernatant was discard and the cell pellet was resuspended and counted. Different cell concentrations (5˜10×10^4 cells/mL) were prepared according to the growth cycle of each cell line and then seeded on a 96-well plate (Corning), 100 μL/well. The cells were incubated over night at 37° C., 5% CO2. The compounds were added to the cells on the second day with 2 wells in parallel. The final concentration of organic solvent shall not exceed 1%. The cells were continually incubated for 72 h, and then subjected to MTT assay.
as §3, §4
as §5, with “The concentration value of 50% inhibition of cell growth (GI50) was calculated.” left out

The next test concerns PC-9 (EGFR dE746-A750). Format: cell-based, human. Particulars: Homo sapiens.
In a further test the test system is H1975 (EGFR L858R/T790M). Format: cell-based, human. As to conditions: Homo sapiens, NCI-H1975.
Test [3] deals with SW48 (EGFR G719S positive). Format: cell-based. As to conditions: Homo sapiens, SW48; Table 15; 1000 nM to 0.03 nM serial dilution; read-out: GI50 SW48 (EGFR G719S). How it is done: PC-9ER is an acquired Erlotinib resistance cell line of PC-9 cells developed by the investor. […] The four cell lines above were cultured with 1×RPMI1640 complete medium (supplement with 10% FBS). Human colon cancer cell line SW48 (EGFR G719S positive, ATCC). was cultured with L15 complete medium (10% FB S).
as §8, §3, §4
as §5, with “The concentration value of 50% inhibition of cell growth (GI50) was calculated.” left out
Each compound started at 1000 nM as an initial concentration and was diluted by […] with serial dilution to 0.03 nM.

In another test the test system is N87 (HER2 Amp). Format: cell-based, human. As to conditions: Homo sapiens.
For a further test, the system named is H292 (EGFR WT). Format: cell-based. As to conditions: Homo sapiens, NCI-H292; Table 15; 1000 nM to 0.03 nM serial dilution; read-out: GI50 H292 (EGFR WT).
Excerpt: EGFR wild type cell lines: human epidermal cancer cell line A431 (EGFR WT, amplification and high expression, from Shanghai Cell Bank of Chinese Academy of Sciences and ATCC), NSCLC cell lines NCI-H460 (EGFR WT, Kras G61H and PI3KCA E545K mutants, ATCC) and NCI-H1299 (EGFR WT, ATCC), melanoma cell line A375 (EGFR WT and BRAF V600E mutant, from Shanghai Cell Bank of Chinese Academy of Sciences, ATCC), human lung cancer cell line NCI-H292 (EGFR WT, from human lung mucoepidermoid carcinoma/lymphatic metastasis, purchased from Shanghai Cell Bank of Chinese Academy of Sciences) were cultured with 1×RPMI1640 complete medium which was supplement with 10% FBS. NSCLC cell line A549 (EGFR WT and Kras G12S mutant, from Shanghai Cell Bank of Chinese Academy of Sciences) was cultured with 1×Ham'S F12K complete medium which was supplement with 10% FBS, 1% double-antibiotics and 2 mM glutamine.
as §8, §3, §4
as §5, with “The concentration value of 50% inhibition of cell growth (GI50) was calculated.” left out

[4] abbreviates: Table 13, 72 h, read-out: Range of GI50 A549 (EGFR WT).
[5] abbreviates: Table 15, 1000 nM to 0.03 nM serial dilution, read-out: GI50 A549 (EGFR WT).
[6] abbreviates: Table 13, 72 h, read-out: Range of GI50 PC-9 (EGFR dE746-A750).
The mark [7] stands for this setting: Table 15, 1000 nM to 0.03 nM serial dilution, read-out: GI50 PC-9 (EGFR dE746-A750).
Setting [8] is: Table 13, 72 h, read-out: Range of GI50 H1975 (EGFR L858R/T790M).
Where [9] appears, read: Table 15, 1000 nM to 0.03 nM serial dilution, read-out: GI50 H1975 (EGFR L858R/T790M).
The mark [10] stands for this setting: Table 13, 72 h, read-out: Range of GI50 N87 (HER2 Amp).
[11] abbreviates: Table 16, 1000 nM to 0.03 nM serial dilution, read-out: GI50 N87 (HER2 amp).

Where two headings read alike, the source gives them in different places. Bounds are passed on as bounds.

This note sets out measurements from patent US10342796B2, “Acrylanilide derivative, preparation method, and applications thereof in pharmacy” (Ancureall Pharmaceutical (Shanghai) Co., Ltd., priority 2015, dated 2019).

In the case of `C=CC(=O)Nc1cc(Nc2cc(Nc3cccc(C#N)c3)ncn2)c(OC)cc1N(C)CCN(C)C` [Compound 229, N-(5-(6-(3-cyano-phenylamino)-pyrimidin-4-yl-amino)-2-((2-dimethylamino-ethyl)-methyl-amino)-4-methoxyl-phenyl)-acrylamide], the GI50 in the test with A549 (EGFR WT) (setting [4]) was greater than 1000 nM; with A549 (EGFR WT) (setting [5]), greater than 1000 nM; in [1] it was 10.3 nM; in test [2], 0.95 nM; in the test on Calu-3 (Her2 amp) it was 1.26 nM; in the test with PC-9 (EGFR dE746-A750) (setting [6]) it was less than 10 nM. The GI50 with PC-9 (EGFR dE746-A750) (setting [7]) was 0.98 nM; with H1975 (EGFR L858R/T790M) (setting [8]), 10 to 100 nM; with H1975 (EGFR L858R/T790M) (setting [9]) it was 19.1 nM; in test [3] it was 4.92 nM; in the test on N87 (HER2 Amp) (setting [10]), less than 10 nM; in the test on N87 (HER2 Amp) (setting [11]), 1.95 nM. Also, the GI50 in the test on H292 (EGFR WT) was greater than 1000 nM.
`C=CC(=O)Nc1cc(Nc2cc(Nc3cc(F)cc(C(F)(F)F)c3)ncn2)c(OC)cc1N(C)CCN(C)C` [Compound 230, N-(5-(6-(5-fluoro-3-trifluoromethyl-phenylamino)-pyrimidin-4-yl-amino)-2-((2-dimethylamino-ethyl)-methyl-amino)-4-methoxyl-phenyl)-acrylamide]: the GI50 is greater than 1000 nM with A549 (EGFR WT) (setting [4]); greater than 1000 nM in the test on A549 (EGFR WT) (setting [5]); 13.2 nM in test [1]; 1.91 nM in [2]; 2.67 nM in the test on Calu-3 (Her2 amp); less than 10 nM in the test on PC-9 (EGFR dE746-A750) (setting [6]). The GI50 in the test on PC-9 (EGFR dE746-A750) (setting [7]) is 0.37 nM; in the test on H1975 (EGFR L858R/T790M) (setting [8]) it was 10 to 100 nM; in the test with H1975 (EGFR L858R/T790M) (setting [9]), 19 nM; in test [3], 5.87 nM; in the test with N87 (HER2 Amp) (setting [10]), less than 10 nM; in the test with N87 (HER2 Amp) (setting [11]), 3.9 nM. Besides, the GI50 in the test with H292 (EGFR WT) was greater than 1000 nM.
As to `C=CC(=O)Nc1cc(Nc2cc(Nc3cc(C(F)(F)F)ccc3F)ncn2)c(OC)cc1N(C)CCN(C)C` [Compound 231, N-(5-(6-(2-fluoro-5-trifluoromethyl-phenylamino)-pyrimidin-4-yl-amino)-2-((2-dimethylamino-ethyl)-methyl-amino)-4-methoxyl-phenyl)-acrylamide], the GI50 in the test with A549 (EGFR WT) (setting [4]) was greater than 1000 nM; in the test with A549 (EGFR WT) (setting [5]), greater than 1000 nM; in test [1], 6.75 nM; in [2], 1.79 nM; in the test on Calu-3 (Her2 amp) it was 5.6 nM; in the test on PC-9 (EGFR dE746-A750) (setting [6]), less than 10 nM. The GI50 in the test with PC-9 (EGFR dE746-A750) (setting [7]) is 0.19 nM; in the test on H1975 (EGFR L858R/T790M) (setting [8]), 10 to 100 nM; with H1975 (EGFR L858R/T790M) (setting [9]), 19.5 nM; in [3] it was 3.13 nM; with N87 (HER2 Amp) (setting [10]), less than 10 nM; with N87 (HER2 Amp) (setting [11]) it was 4.21 nM. Also, the GI50 in the test with H292 (EGFR WT) is greater than 1000 nM.
For the compound `C=CC(=O)Nc1cc(Nc2cc(Nc3cc(OC)cc(C(F)(F)F)c3)ncn2)c(OC)cc1N(C)CCN(C)C` [Compound 232, N-(5-(6-(3-methoxyl-5-trifluoromethyl-phenylamino)-pyrimidin-4-yl-amino)-2-((2-dimethylamino-ethyl)-methyl-amino)-4-methoxyl-phenyl)-acrylamide], the GI50 in the test on A549 (EGFR WT) (setting [4]) was greater than 1000 nM; with A549 (EGFR WT) (setting [5]), greater than 1000 nM; in test [1] it was 6.82 nM; in test [2] it was 1.02 nM; in the test with Calu-3 (Her2 amp), 2.49 nM; in the test with PC-9 (EGFR dE746-A750) (setting [6]), less than 10 nM. Moreover, the GI50 was 2.43 nM in the test with PC-9 (EGFR dE746-A750) (setting [7]); 10 to 100 nM in the test with H1975 (EGFR L858R/T790M) (setting [8]); 16.9 nM in the test with H1975 (EGFR L858R/T790M) (setting [9]); 4.87 nM in [3]; less than 10 nM in the test with N87 (HER2 Amp) (setting [10]); 1.92 nM in the test on N87 (HER2 Amp) (setting [11]). For the same compound, the GI50 with H292 (EGFR WT) was greater than 1000 nM.
On to `C=CC(=O)Nc1cc(Nc2cc(Nc3cc(C(F)(F)F)ccc3OC)ncn2)c(OC)cc1N(C)CCN(C)C` [Compound 233, N-(5-(6-(2-methoxyl-5-trifluoromethyl-phenylamino)-pyrimidin-4-yl-amino)-2-((2-dimethylamino-ethyl)-methyl-amino)-4-methoxyl-phenyl)-acrylamide], for which the GI50 was greater than 1000 nM with A549 (EGFR WT) (setting [4]); greater than 1000 nM in the test on A549 (EGFR WT) (setting [5]); 7.21 nM in [1]; 0.87 nM in test [2]; 0.98 nM with Calu-3 (Her2 amp); less than 10 nM in the test on PC-9 (EGFR dE746-A750) (setting [6]). The GI50 in the test on PC-9 (EGFR dE746-A750) (setting [7]) was 0.49 nM; in the test with H1975 (EGFR L858R/T790M) (setting [8]) it was 10 to 100 nM; with H1975 (EGFR L858R/T790M) (setting [9]), 19.2 nM; in test [3], 4.19 nM; in the test on N87 (HER2 Amp) (setting [10]), less than 10 nM; with N87 (HER2 Amp) (setting [11]), 0.95 nM. Further, the GI50 in the test with H292 (EGFR WT) is greater than 1000 nM.
